Patent US8580776B2, “Compositions and methods for treating neurodegenerating diseases” (The Board of Trustees of the University of Illinois, priority 2007, dated 2013)

Key:
LC noradrenergic neurons = assay: Lesion of the locus coeruleus with DSP4 in H6 mice; format: in vivo; conditions: DSP4 5 mg per kg i.p. every two weeks, H6 mice from age 3-4 months, sacrificed at 9 months
Experimental: Hemizygous male H6 mice (aged 3 to 4 months) were injected with vehicle or with DSP4 (5 mg per kg; i.p., every two weeks) and all mice were sacrificed at age 9 months. This protocol (a low, chronic dose) results in 70% loss of LC noradrenergic neurons. Brains were dissected, the left hemispheres were fast frozen in isopentane at −30° C. and stored at −80° C. for subsequent protein and RNA studies. The right hemispheres were processed for immunohistochemistry.
A chronic treatment paradigm was chosen using a relatively low dose (5 mg/kg) which may better reproduce the slow onset of NA dysfunction that is seen with aging in humans, and a gradual rather than abrupt loss of LC neurons.

[1] = test system: tyrosine hydroxylase (TH); assay: QPCR of tyrosine hydroxylase mRNA in DSP4-treated rats; format: in vivo, rat
Experimental: In this experiment, the effects of DSP4 on tyrosine hydroxylase (TH) and IkBα expression were analyzed. Adult rat Sprague Dawley rats were treated with the selective neurotoxin DSP4 to lesion locus ceruleus (LC) noradrenergic neurons and deplete cortical NA levels as described in Example 1.
RNA samples from control or DSP4-treated rats (n=4 each) were converted to cDNA and analyzed by QPCR for relative levels of tyrosine hydroxylase (TH) (FIG. 6A) in the locus ceruleus (LC).
Total cytoplasmic RNA from tissues was prepared from cells using TRIZOL reagent according to manufacturer procedures (Invitrogen/GIBCO); aliquots were converted to cDNA using random hexamer primers, and mRNA levels were estimated by quantitative touchdown PCR (QPCR). Conditions were 35 cycles of denaturation at 94° C. for 10 s; annealing at 58-64° C. for 15 s; and extension at 72° C. for 20 s on a Corbett Rotorgene Real-Time PCR unit (Corbett, Australia). The PCR mastermix contained SYBR Green (1 μl diluted 1:10,000 SybrGreen I 10,000× concentrate, Molecular Probes, Eugene, Oreg.). Relative mRNA concentrations were calculated from the takeoff point of reactions using manufacturer's software. Melting curve analysis and agarose gel electrophoresis were performed to ensure production of single and corrected size products. Relative mRNA values were normalized to housekeeping genes, either α-Tubulin (α-Tub), β-Actin (βAct) or glyceraldehyde-3-phosphate dehydrogenase (GDH). The primers used for QPCR (all listed 5′ to 3′) were: […]
After acclimation (7-10 days), rats received two intraperitoneal injections (one week apart) of either N-(2-chloroethyl)-N-ethyl-2 bromobenzylamine (DSP4, 5 mg/kg) dissolved in PBS or PBS alone (FIG. 6A). Four weeks after the second treatment, the animals were anesthetized with pentobarbital (50 mg/kg i.p.), and placed in a stereotaxic frame (Stoelting, USA) on a heating blanket. Body temperature was maintained at 37±0.5° C. for the time of surgery. […]

microglial marker Mac1 = assay: Glial activation: Mac1 staining of brain sections; format: in vivo, mice
Experimental: (§1) The effects of DSP4 treatment on glial activation were assessed in hippocampus and frontal cortex by staining for microglial marker Mac1 and astrocyte marker GFAP (FIG. 3). Sections from vehicle and DSP4 treated H6 mice brains were stained with antibodies directed against Mac1 to assess microglial activation (FIG. 3A-C); and GFAP to assess astrocyte activation (FIG. 3D-F). […] FIGS. 3G-3I show quantitative analysis of Mac1 (FIG. 3G-3H) and GFAP staining (FIG. 31).
(§2) Hemibrains were fixed overnight in 4% paraformaldehyde in 0.1M phosphate buffer, then overnight in 10% sucrose in 0.1M phosphate buffer, and then frozen in isopentane at −30° C. Serial sections (35 um thick) were prepared on a cryostat, and stored in cryoprotective solution (0.1M phosphate buffer: ethyleneglycol:glycerol 30:40:30) at −20° C. […] Staining was quantified using software provided by the manufacturer (Zeiss AxioVision). GFAP and Mac1 staining was quantified in 3 different areas on each of 4 serial sections for each animal (n=3 or 4 for Mac1; n=7 or 9 for GFAP staining) The data was average area stained per section (as % total area) from DSP4-treated (n=3 for Mac1; n=7 for GFAP) and vehicle-treated (n=4 for Mac1; n=9 for GFAP) mice. […]

astrocyte marker GFAP = assay: Glial activation: GFAP staining of brain sections; format: in vivo, mice
Experimental: as §1, §2

## CCN(CCCl)Cc1ccccc1Br [DSP4, N-(2-chloroethyl)-N-ethyl-2-bromobenzylamine]
LC noradrenergic neurons
  loss of LC noradrenergic (TH positive) neurons: 70%
[1]; DSP4-treated rats, n=4
  TH mRNA levels in the LC: 57 % versus control levels
[1]; not statistically significant, P>0.05
  reduction in cortical TH mRNA levels: 25%
[1]; versus control values, n=4
  reduction of LC TH mRNA: 43%
Microglial marker Mac1; hippocampus effect not statistically significant
  Mac1 staining, hippocampus and frontal cortex: increased Mac1 staining in both regions
Microglial marker Mac1; versus vehicle, statistically significant
  increase in Mac1 staining, frontal cortex: approximately 40%
Astrocyte marker GFAP; low levels of staining, not shown
  GFAP staining, frontal cortex: little effect
Astrocyte marker GFAP; versus vehicle, significant
  increase in GFAP staining, hippocampus: approximately 68%
